According to ChEMBL document CHEMBL1201862, “PubChem BioAssay data set” (2004):
Values belong to the compound of their own block, whether it stands above or below them. The source made the active and inactive calls. Rule as the data show it, for most assays here: actives have a measured IC50 and inactives only a lower limit.

Assays:
Bcl-2-related protein A1 = target: T1, Bcl-2-related protein A1 (Mus musculus, UniProt Q07440); type: functional;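 also: confirmatory dose–response counterscreen on Bfl-1, used to check hits from a UBC13 polyubiquitin inhibitor campaign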
T1 sequence (Q07440 whole entry): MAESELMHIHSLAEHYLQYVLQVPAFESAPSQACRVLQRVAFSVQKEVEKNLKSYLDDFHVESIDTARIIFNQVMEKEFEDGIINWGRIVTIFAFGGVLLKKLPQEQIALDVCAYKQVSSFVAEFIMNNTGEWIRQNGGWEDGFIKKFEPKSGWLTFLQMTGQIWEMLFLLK

[1] = target: T2, Ubiquitin-conjugating enzyme E2 N (Homo sapiens, UniProt P61088); type: functional
T2 sequence (P61088 whole entry): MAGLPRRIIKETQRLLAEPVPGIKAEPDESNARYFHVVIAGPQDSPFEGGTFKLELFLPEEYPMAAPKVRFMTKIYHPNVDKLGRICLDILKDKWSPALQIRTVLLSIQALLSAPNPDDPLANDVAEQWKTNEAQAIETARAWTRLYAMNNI

[2] = target: T2, Ubiquitin-conjugating enzyme E2 N; type: functional; remark: listed apart in the source
[3] = Counterscreen for AddAB inhibitors: absorbance-based bacterial cell-based high throughput dose response assay for inhibitors of bacterial viability. [Related pubchem assays (depositor defined):AID435030, AID449728, AID449731, AID488942, AID488955, AID488956]; type: functional
Exodeoxyribonuclease V = Exodeoxyribonuclease V (Escherichia coli (strain K12), UniProt P04993+P07648+P08394); assay: E. coli RecBCD inhibitors, dose response, counter-screen for AddAB inhibitor project, absorbance, V66 E. coli, mutant T4 phage (AID 492957); type: functional, cell-based, Escherichia coli str. K-12 substr. MG1655
[4] = target: T3, Alkaline phosphatase, tissue-nonspecific isozyme (Homo sapiens, UniProt P05186); assay: human TNAP enzyme inhibitors, SAR follow-up, biochemical, luminescent, dose response (AID 1056)
T3 sequence (P05186 whole entry): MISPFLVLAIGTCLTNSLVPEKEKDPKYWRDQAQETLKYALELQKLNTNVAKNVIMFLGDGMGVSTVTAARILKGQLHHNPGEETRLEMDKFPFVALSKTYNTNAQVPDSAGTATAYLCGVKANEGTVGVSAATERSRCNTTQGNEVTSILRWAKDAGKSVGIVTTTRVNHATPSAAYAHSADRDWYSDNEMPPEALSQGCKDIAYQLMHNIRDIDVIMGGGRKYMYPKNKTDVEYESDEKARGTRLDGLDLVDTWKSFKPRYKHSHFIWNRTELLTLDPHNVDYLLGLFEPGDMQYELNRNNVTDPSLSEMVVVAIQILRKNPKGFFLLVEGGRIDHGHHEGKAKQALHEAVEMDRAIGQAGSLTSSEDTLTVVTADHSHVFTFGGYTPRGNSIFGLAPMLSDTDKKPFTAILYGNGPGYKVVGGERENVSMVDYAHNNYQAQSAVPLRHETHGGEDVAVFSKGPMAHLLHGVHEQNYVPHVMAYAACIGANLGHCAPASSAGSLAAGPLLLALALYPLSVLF

[5] = target: Glyceraldehyde-3-phosphate dehydrogenase (Homo sapiens, UniProt P04406)
[6] = target: T3, Alkaline phosphatase, tissue-nonspecific isozyme; assay: TNAP enzyme inhibition by screening hits, dose response, selectivity assay for mouse IAP inhibitor project, biochemical, human TNAP, uHTS hits (AID 488906); type: functional
[7] = target: Intestinal-type alkaline phosphatase (Mus musculus, UniProt P24822); assay: PubChem AID 488785; type: functional
[8] = target: Intestinal-type alkaline phosphatase (Homo sapiens, UniProt P09923); assay: inhibition of human intestinal alkaline phosphatase – biochemical, dose response (AID 488876); type: functional
[9] = target: DNA dC->dU-editing enzyme APOBEC-3G (Homo sapiens, UniProt Q9HC16); type: functional;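 also: Dose-response counterscreen measuring inhibition of APOBEC3G DNA deaminase activity, run while confirming APOBEC3A inhibitors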
[10] = target: DNA dC->dU-editing enzyme APOBEC-3A (Homo sapiens, UniProt P31941); assay: Dose Response confirmation of small molecule APOBEC3A DNA Deaminase Inhibitors via a fluorescence-based single-stranded DNA deaminase assay. [Related pubchem assays (depositor defined):AID493011, AID493024]; type: functional
DNA dC->dU-editing enzyme APOBEC-3A, sequence (P31941 whole entry): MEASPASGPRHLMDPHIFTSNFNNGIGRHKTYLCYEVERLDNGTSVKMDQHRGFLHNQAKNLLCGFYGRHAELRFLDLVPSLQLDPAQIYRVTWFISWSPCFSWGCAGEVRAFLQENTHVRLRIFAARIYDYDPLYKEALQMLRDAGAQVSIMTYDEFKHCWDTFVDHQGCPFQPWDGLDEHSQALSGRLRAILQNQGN

Intestinal-type alkaline phosphatase (Homo sapiens, UniProt P09923), sequence (P09923 whole entry): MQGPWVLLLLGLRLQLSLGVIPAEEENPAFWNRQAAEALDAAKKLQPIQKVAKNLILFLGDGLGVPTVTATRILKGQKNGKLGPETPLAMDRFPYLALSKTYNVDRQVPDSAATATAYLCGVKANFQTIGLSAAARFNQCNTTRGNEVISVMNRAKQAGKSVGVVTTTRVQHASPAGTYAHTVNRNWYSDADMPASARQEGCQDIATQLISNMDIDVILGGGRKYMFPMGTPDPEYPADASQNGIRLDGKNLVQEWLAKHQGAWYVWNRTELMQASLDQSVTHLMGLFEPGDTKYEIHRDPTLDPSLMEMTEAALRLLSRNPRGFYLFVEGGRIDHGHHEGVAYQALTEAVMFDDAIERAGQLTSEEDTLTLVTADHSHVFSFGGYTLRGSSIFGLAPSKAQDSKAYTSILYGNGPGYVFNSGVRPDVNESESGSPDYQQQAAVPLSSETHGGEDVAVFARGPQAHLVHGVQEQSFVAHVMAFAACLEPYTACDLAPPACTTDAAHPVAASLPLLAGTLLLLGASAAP
Glyceraldehyde-3-phosphate dehydrogenase, sequence (P04406 whole entry): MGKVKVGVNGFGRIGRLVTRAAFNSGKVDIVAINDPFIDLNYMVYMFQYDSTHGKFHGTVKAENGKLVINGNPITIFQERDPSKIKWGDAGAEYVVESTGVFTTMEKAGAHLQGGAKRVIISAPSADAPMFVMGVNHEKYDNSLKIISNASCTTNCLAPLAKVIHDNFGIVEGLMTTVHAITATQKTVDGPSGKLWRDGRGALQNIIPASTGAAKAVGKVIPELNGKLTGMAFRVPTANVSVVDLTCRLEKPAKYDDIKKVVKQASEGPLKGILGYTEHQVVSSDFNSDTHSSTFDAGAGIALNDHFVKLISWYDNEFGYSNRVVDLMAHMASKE
DNA dC->dU-editing enzyme APOBEC-3G, sequence (Q9HC16 whole entry): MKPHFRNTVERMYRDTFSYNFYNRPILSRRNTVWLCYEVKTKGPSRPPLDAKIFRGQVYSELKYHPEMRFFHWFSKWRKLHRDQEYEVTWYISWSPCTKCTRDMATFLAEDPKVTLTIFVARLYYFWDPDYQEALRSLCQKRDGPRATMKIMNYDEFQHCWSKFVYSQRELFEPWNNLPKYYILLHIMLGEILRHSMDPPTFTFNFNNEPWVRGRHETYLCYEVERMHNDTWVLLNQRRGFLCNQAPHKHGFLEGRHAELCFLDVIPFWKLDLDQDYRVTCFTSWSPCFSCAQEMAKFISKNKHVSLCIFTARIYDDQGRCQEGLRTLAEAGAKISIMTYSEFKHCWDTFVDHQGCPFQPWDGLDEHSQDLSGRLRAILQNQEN
Exodeoxyribonuclease V, sequence (P04993 whole entry): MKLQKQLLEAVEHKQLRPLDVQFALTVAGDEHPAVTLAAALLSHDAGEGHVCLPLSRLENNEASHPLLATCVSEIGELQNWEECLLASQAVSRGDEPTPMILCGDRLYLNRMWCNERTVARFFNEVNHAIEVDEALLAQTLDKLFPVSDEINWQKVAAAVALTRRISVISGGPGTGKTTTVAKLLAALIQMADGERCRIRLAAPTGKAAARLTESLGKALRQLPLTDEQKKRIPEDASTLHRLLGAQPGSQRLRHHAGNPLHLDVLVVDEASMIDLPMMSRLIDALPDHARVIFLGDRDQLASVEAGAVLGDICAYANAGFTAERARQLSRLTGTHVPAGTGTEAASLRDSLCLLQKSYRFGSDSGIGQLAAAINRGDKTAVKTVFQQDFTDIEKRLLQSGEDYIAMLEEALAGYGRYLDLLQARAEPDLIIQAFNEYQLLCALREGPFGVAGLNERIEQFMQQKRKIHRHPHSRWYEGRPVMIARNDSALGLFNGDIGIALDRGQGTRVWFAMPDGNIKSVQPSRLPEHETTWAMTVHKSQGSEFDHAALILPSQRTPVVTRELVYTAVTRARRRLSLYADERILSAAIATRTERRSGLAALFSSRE
Exodeoxyribonuclease V, sequence (P07648 whole entry): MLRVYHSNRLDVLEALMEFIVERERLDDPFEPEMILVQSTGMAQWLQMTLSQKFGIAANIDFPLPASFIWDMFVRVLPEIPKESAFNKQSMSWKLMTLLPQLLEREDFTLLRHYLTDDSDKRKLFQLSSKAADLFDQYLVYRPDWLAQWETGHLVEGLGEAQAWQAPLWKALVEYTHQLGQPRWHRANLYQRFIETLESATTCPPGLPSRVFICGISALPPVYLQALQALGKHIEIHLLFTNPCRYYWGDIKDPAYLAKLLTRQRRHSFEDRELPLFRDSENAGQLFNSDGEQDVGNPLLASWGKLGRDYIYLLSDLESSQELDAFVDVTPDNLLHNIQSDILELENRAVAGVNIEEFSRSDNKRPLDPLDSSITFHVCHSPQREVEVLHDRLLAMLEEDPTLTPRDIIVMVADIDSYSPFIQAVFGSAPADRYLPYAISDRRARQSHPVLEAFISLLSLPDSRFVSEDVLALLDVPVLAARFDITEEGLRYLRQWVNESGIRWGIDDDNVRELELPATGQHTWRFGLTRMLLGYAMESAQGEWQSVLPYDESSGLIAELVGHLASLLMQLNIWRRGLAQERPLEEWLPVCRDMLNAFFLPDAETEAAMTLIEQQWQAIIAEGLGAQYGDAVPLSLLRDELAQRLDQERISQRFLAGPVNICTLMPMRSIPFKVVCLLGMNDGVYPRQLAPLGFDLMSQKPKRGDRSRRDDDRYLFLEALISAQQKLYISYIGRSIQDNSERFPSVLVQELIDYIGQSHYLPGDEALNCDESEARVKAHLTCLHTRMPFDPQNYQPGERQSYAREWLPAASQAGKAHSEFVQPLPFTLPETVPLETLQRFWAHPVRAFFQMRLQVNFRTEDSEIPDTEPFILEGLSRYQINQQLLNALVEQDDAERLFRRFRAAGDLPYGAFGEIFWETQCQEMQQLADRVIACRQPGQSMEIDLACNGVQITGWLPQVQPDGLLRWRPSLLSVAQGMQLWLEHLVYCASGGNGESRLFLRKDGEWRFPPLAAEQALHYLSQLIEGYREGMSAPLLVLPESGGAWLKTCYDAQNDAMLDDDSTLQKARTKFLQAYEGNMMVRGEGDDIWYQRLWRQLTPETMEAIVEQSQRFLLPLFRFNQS
Exodeoxyribonuclease V, sequence (P08394 whole entry): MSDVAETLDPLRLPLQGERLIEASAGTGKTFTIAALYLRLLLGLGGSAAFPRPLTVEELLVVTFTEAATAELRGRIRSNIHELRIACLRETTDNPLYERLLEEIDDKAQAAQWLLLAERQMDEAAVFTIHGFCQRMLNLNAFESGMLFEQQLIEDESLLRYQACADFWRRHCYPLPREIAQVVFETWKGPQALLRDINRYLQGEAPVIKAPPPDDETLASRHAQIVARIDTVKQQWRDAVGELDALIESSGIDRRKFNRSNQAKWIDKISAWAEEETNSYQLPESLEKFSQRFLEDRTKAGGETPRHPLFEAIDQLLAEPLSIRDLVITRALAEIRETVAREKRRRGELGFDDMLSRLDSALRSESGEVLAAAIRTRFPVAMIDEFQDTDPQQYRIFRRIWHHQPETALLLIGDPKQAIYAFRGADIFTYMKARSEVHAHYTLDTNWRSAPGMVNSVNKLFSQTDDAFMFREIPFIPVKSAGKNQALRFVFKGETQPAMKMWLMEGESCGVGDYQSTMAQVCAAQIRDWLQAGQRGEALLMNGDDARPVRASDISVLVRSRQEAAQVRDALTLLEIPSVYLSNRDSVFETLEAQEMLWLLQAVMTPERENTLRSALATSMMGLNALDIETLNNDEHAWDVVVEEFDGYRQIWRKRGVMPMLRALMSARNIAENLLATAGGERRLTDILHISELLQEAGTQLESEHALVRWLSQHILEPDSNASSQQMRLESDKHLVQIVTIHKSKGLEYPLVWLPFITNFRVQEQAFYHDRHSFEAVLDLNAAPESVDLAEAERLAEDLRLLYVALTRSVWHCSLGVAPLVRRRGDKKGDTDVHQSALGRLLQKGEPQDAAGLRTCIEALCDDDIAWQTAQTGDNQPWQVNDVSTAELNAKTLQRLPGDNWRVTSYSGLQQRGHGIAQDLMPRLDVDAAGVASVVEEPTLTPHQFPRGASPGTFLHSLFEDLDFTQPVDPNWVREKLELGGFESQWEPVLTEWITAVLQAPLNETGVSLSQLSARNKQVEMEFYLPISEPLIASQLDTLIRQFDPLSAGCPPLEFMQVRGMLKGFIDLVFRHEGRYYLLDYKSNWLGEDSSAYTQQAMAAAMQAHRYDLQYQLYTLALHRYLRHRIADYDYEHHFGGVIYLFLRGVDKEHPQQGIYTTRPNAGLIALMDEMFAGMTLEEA
Intestinal-type alkaline phosphatase (Mus musculus, UniProt P24822), sequence (P24822 whole entry): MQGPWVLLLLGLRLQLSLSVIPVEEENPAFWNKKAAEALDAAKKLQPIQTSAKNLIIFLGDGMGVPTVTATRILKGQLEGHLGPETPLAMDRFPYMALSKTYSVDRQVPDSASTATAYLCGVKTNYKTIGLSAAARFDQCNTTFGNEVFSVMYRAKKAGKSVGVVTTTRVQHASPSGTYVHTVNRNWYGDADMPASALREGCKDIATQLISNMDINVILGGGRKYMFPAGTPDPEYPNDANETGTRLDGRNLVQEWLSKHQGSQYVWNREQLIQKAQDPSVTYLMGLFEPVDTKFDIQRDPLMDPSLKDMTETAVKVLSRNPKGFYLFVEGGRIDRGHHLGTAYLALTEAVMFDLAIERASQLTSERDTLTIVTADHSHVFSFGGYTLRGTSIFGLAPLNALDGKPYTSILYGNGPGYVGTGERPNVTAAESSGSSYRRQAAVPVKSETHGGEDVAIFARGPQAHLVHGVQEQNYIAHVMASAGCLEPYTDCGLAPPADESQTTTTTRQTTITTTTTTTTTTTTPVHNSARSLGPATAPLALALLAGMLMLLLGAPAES

IC50 (Bcl-2-related protein A1): > 20 µM (inactive) | IC50 [1]: 14.4 µM (active) | IC50 [2]: 9.72 µM (active)
SMILES: Cc1ccc(NC(=O)C[n+]2ccn(C3=C([O-])c4ccccc4C3=O)c2)cc1

SMILES: CC(=O)Nc1ccc2nc(NC(=O)c3ccc([N+](=O)[O-])o3)sc2c1
IC50 [3]: > 119 µM (inactive) | IC50 (Exodeoxyribonuclease V): > 119 µM (inactive)

IC50 [4]: > 10 µM (inactive) | IC50 [5]: > 10 µM (inconclusive)
SMILES: O=S(=O)(Nc1ccc2ccccc2c1)c1ccc(Br)cc1OC(F)(F)F

IC50 [6]: 23.9 µM (active) | IC50 [7]: 11.3 µM (active) | IC50 [8]: 15.9 µM (active)
SMILES: COc1ccc(Cl)cc1NC(=S)NCCC(c1ccccc1)c1ccccc1

SMILES: CC1=CC(C)(C)[N+](C)=CN1c1ccccc1
IC50 [9]: 4.28 µM (active) | IC50 [10]: 2.19 µM (active)
